Measured values from patent publication US20060111327A1, “Derivatives of triptolide having a high immunosuppressive effect and high water solubility, and uses thereof” (priority 2002, published 2006).
Values joined by “and” are separate entries in the source; they are usually repeats but may differ in a detail not shown here. Identical values can stand only once. Like-named read-outs stand apart in the source and are kept apart here.

Assays:
IL-2 = format: cell-based, rat
IL-6 = format: cell-based, rat
iNOS = format: cell-based, rat
physchem = settings: water
[1] = test system: cotton ball granulation in rat; design: species or system Wister rats; settings: in vivo
[2] = test system: rat adjuvant-induced arthritis; design: species or system SD rats; settings: in vivo
[3] = test system: rat adjuvant-induced arthritis; settings: in vivo
[4] = test system: transplanted heart (C57BL mouse heart grafted into balb/c mouse); settings: in vivo
Kunming mice = settings: both, mouse, in vivo, iv
in vivo = settings: both, Kunming, mouse
[5] = Cell membrane permeability (unpublished experimental data); format: in vitro ADME; settings: our unpublished experimental data
[6] = background statement; cited from earlier work
[7] = in vivo; cited from earlier work

## CC(C)[C@]12O[C@H]1C1O[C@]13[C@]1(O[C@H]1C[C@H]1C4=C(CC[C@@]13C)C(=O)OC4)[C@@H]2O[PH](=O)[O-].[Na+] (stereo partly drawn) [WDY4, sodium triptolide-14-β-phosphite]
IL-2
  inhibition of LPS- or PHA-induced IL-2 mRNA expression: completely inhibited
IL-6
  inhibition of mRNA expression of IL-6: completely
iNOS
  inhibition of mRNA expression of iNOS: completely
physchem
  solubility: > 100 mg/mL

## CC(C)[C@@]1(O)[C@H](SC#N)C2O[C@]23[C@]2(O[C@H]2C[C@H]2C4=C(CC[C@@]23C)C(=O)OC4)[C@@H]1OC(=O)CCC(=O)O (stereo partly drawn) [WDY6, 12-β-thiocyano-13-α-hydroxy triptolide-14-β-succinic acid mono-ester]
[1]
  Inhibition of swelling: 42.6% and 47.1% and 49.0%
  effect against cotton ball granulation: significant effect
[2]
  effect on thickness of the contralateral paw (left hind paw): significantly decreased
[3]
  effect in the treatment of adjuvant-induced rat arthritis: significant effect
[4]
  Average survival time: 12.7 days
  body weight and appetite of treated mice: did not show a decrease of body weight and their appetites were normal

## CC(C)[C@]12OP(=O)([O-])O[C@H]1[C@]13O[C@H]1C[C@H]1C4=C(CC[C@]1(C)[C@@]31OC1[C@H]2Cl)C(=O)OC4.[Na+] (stereo partly drawn) [WDY2, sodium 12-β-chlorotriptolide-13-α-14-13-phosphate]
physchem
  solubility: > 100 mg/mL

## CC(C)[C@]12OP(=O)([O-])O[C@H]1[C@]13O[C@H]1C[C@H]1C4=C(CC[C@]1(C)[C@@]31OC1[C@H]2SC#N)C(=O)OC4.[Na+] (stereo partly drawn) [WDY1, sodium 12-β-thiocyano triptolide-13-α-14-β-phosphate]
[1]
  Inhibition of swelling: 45.7% and 59.3% and 46.3%
  effect against cotton ball granulation: significant effect
Kunming mice; 98 mg/kg
  Death No. of mice: 0
  Mortality: 0%
Kunming mice; 109 mg/kg
  Death No. of mice: 1
  Mortality: 10%
Kunming mice; 122 mg/kg
  Death No. of mice: 4
  Mortality: 40%
Kunming mice; 135 mg/kg
  Death No. of mice: 8
  Mortality: 80%
Kunming mice; 150 mg/kg
  Death No. of mice: 9
  Mortality: 90%
In vivo; acute toxicity LD50
  LD50: 126 mg/kg
In vivo; iv, 95% limit of LD50
  LD50: 119 to 133 mg/kg
In vivo; iv, LD50
  LD50: 126 mg/kg
physchem
  solubility: > 100 mg/mL

## CC(C)[C@]12O[C@H]1[C@@H]1O[C@]13[C@]1(O[C@H]1C[C@H]1C4=C(CC[C@@]13C)C(=O)OC4)[C@@H]2O [triptolide]
[5]
  cell membrane permeability: Low cell membrane permeability
[6]
  water solubility: Low water solubility
[7]
  LD50: 0.85 mg/kg body weight

## CC(C)[C@]12O[C@H]1C1O[C@]13[C@]1(O[C@H]1C[C@H]1C4=C(CC[C@@]13C)C(=O)OC4)[C@@H]2OP(=O)([O-])[O-].[Na+].[Na+] (stereo partly drawn) [WDY7, disodium triptolide-14-β-phosphate]
[1]
  Inhibition of swelling: 41.5% and 55.6% and 56.8%
  effect against cotton ball granulation: significant effect
[3]
  effect in the treatment of adjuvant-induced rat arthritis: significant effect
[4]
  Average survival time: 13.8 days
  anti-rejection effect: significant anti-rejection effect
  body weight and appetite of treated mice: did not show a decrease of body weight and their appetites were normal
In vivo; acute toxicity LD50
  LD50: 0.8 mg/kg
physchem
  solubility: > 100 mg/mL

## C[C@]12CCC(=O)C=C1CC[C@@H]1[C@@H]2[C@@H](O)C[C@@]2(C)[C@H]1CC[C@]2(O)C(=O)CO [Hydrocordisone, reference compound]
[1]
  Inhibition of swelling: 42.2%
  effect against cotton ball granulation: significantly decreased weight of cotton ball granulation
